Entries after “also recorded” stand apart in the source; their conditions may differ. Read-outs that look alike come from different tables or passages of the source.
System: TCPTP1-281
Experiment: pNPP hydrolysis by TC-PTP lacking the α7-equivalent region
Assay type: biochemical, H. sapiens
Details: for change in PTP1B/TC-PTP selectivity on removal of the α7 helix (or equivalent) from both enzymes: PTP1B1-281 and TCPTP1-281 vs full constructs; for Ki: TCPTP1-281
Procedure: Enzyme kinetics. To examine terpenoid-mediated inhibition, we measured PTP-catalyzed hydrolysis of p-nitrophenyl phosphate (pNPP) or 4-methylumbelliferyl phosphate (4-MUP, used when KM for pNPP was large) in the presence of various concentrations of terpenoids. Each reaction included PTP (0.05 μM PTP1B/TCPTP or 0.1 μM SHP1/SHP2 in 50 mM HEPES, 0.5 mM TCEP, 50 μg/ml BSA), pNPP (0.33, 0.67, 2, 5, 10, and 15 mM) or 4-MUP (0.13, 0.27, 0.8, 2.27, 2.93, 4.53, 7.07, and 8 mM), inhibitor (with concentrations listed in the figures), buffer (50 mM HEPES pH=7.3, 50 μg/ml BSA), and DMSO at 10% v/v. We monitored the formation of p-nitrophenol by measuring absorbance at 405 nm every 10 seconds for 5 minutes on a SpectraMax M2 plate reader and the formation of 4-methylumbelliferyl by measuring fluorescence at 450 nm (370 nm ex, 435 nm cutoff, medium gain).
We used a custom MATLAB script to process all raw kinetic data. This script removed all concentration values that fell outside of either (i) the range of our standard curve (absorbance/fluorescence vs. μM; FIG. 39) or (ii) the initial rate regime (>10% of the pNPP or 4-MUP concentration used in the assay). When this step reduced kinetic dataset to fewer than ten points, we re-measured those datasets to collect at least ten. We fit final datasets, in turn, with a linear regression model (using Matlab's backslash operator).
We evaluated kinetic models in three steps: (i) We fit initial-rate measurements collected in the absence and presence of inhibitors to Michaelis-Menten and inhibition models, respectively (here, we used the nlinfit and fminsearch functions from MATLAB; TABLE 12). (ii) We used an F-test to compare the mixed model to the single-parameter model with the least sum squared error (here, we used the fedf function from MATLAB to assign p-values), and we accepted the mixed model when p<0.05. (iii) We used the Akaike's Information Criterion (AIC) to compare the best-fit single parameter model to each alternative single parameter model, and we accepted the “best-fit” model when the difference in AIC (Δi) exceed 5 for all comparisons.^78 We note: For AD, AB, and (+) 1-(10),4-cadinadiene this criterion was not met; both noncompetitive and uncompetitive models, however, yielded indistinguishable ICso's.
We used the MATLAB function “nlparci” to determine the confidence intervals of kinetic parameters, and we propagated those intervals to estimate corresponding confidence intervals for each IC50.

[1] = competitive model of inhibition, read-out: Fit par. Ki, competitive model
[2] = mixed model, uncompetitive constant, read-out: Fit par. Ki,u, mixed model
[3] = noncompetitive model of inhibition, read-out: Fit par. Ki, noncompetitive model
[4] = uncompetitive model of inhibition, read-out: Fit par. Ki, uncompetitive model

Structure (SMILES) | change in PTP1B/TC-PTP selectivity on removal of the α7 helix (or equivalent) from both enzymes (listed as AD) | Ki [1] | Ki [2] | Ki [3] | Ki [4] | change in PTP1B/TC-PTP selectivity on removal of the α7 helix (or equivalent) from both enzymes (listed as AB) | Ki (mixed model, competitive constant, read-out: Fit par. Ki,c, mixed model)
C=C(C)[C@@H]1CC[C@@H](C)[C@@H]2CCC(C)=C[C@@H]21 [amorphadiene] | four-fold; also recorded: reduces the selectivity | 87.2 µM | 356 µM | 400 µM | 356 µM | – | –
CC(C)=CCC=C(C)C1CC=C(C)CC1 (stereo not drawn) [α-bisabolene] | – | 13.7 µM | 69.3 µM | 76.2 µM | 69.2 µM | insensitive and not | 3610 µM

— patent US12729458B2, “Discovery and evolution of biologically active metabolites” (The Regents of the University of Colorado, a Body Corporate, priority 2020, dated 2026)
